Laboratory results reported in ChEMBL document CHEMBL4837249, “Discovery of Potent Antiallergic Agents Based on an o-Aminopyridinyl Alkynyl Scaffold” (J Med Chem, 2021).

Legend:
[1] = molecular target: Tyrosine-protein kinase SYK (Homo sapiens) (UniProt P43405); experiment: Inhibition of human full length recombinant Syk at 500 nM by radiometric scintillation counting analysis relative to control
[2] = molecular target: Tyrosine-protein kinase Srms (Homo sapiens, UniProt Q9H3Y6); experiment: Inhibition of human SRMS at 500 nM by radiometric scintillation counting analysis relative to control
Tyrosine-protein kinase Srms, sequence (Q9H3Y6 whole entry): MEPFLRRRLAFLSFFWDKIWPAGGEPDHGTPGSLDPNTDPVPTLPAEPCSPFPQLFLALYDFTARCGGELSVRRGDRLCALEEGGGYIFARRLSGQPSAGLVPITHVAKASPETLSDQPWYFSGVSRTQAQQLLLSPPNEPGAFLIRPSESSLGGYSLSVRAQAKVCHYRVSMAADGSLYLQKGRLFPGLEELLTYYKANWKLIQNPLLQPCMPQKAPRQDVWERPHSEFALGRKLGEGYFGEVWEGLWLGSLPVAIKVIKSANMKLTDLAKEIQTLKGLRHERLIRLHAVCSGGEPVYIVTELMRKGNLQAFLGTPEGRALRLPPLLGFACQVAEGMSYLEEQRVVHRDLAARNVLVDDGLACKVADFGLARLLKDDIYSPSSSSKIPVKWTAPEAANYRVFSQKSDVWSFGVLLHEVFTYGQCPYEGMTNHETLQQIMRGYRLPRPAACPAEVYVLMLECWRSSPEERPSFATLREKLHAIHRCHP

[3] = molecular target: Tyrosine-protein kinase Fgr (Homo sapiens, UniProt P09769); experiment: Inhibition of human recombinant FGR (456 to 770) at 50 nM by radiometric scintillation counting analysis relative to control
Tyrosine-protein kinase Fgr, sequence (P09769 2-529 limits assumed): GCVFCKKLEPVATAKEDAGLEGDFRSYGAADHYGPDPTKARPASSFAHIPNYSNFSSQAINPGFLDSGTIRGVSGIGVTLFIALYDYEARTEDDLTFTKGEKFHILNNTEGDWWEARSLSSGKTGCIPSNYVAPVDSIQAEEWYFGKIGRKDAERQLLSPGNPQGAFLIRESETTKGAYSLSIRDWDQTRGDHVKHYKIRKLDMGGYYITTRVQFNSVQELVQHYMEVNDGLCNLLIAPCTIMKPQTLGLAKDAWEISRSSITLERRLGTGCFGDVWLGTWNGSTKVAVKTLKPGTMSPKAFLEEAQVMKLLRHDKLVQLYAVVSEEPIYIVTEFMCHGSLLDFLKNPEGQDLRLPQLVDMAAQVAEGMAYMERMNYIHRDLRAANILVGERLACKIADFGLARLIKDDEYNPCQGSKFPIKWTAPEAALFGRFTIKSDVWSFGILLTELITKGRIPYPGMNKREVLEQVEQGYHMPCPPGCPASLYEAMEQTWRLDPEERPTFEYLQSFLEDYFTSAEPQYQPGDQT

[4] = molecular target: T1, Tyrosine-protein kinase Lck (Homo sapiens, UniProt P06239); experiment: Inhibition of human full length recombinant LCK at 5 nM by radiometric scintillation counting analysis relative to control
[5] = molecular target: T2, Tyrosine-protein kinase CSK (Homo sapiens, UniProt P41240); experiment: Inhibition of human full length recombinant CSK at 50 nM by radiometric scintillation counting analysis relative to control
T2 sequence (P41240 2-450 limits assumed): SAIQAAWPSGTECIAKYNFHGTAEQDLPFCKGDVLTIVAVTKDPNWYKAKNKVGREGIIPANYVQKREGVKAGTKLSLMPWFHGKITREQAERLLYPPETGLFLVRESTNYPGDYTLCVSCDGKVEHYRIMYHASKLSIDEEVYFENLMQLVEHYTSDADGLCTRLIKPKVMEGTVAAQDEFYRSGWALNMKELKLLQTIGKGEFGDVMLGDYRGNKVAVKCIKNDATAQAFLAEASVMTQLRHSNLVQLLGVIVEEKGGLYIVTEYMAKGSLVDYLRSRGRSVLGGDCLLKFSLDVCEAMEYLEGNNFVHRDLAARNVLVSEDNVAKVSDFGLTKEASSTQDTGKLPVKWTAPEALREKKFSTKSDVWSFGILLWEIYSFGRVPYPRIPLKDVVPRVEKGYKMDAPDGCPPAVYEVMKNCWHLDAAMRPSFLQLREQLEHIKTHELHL

[6] = molecular target: Tyrosine-protein kinase HCK (Homo sapiens, UniProt P08631); experiment: Inhibition of human recombinant HCK (230 to 497) at 50 nM by radiometric scintillation counting analysis relative to control
Tyrosine-protein kinase HCK, sequence (P08631 2-526 limits assumed): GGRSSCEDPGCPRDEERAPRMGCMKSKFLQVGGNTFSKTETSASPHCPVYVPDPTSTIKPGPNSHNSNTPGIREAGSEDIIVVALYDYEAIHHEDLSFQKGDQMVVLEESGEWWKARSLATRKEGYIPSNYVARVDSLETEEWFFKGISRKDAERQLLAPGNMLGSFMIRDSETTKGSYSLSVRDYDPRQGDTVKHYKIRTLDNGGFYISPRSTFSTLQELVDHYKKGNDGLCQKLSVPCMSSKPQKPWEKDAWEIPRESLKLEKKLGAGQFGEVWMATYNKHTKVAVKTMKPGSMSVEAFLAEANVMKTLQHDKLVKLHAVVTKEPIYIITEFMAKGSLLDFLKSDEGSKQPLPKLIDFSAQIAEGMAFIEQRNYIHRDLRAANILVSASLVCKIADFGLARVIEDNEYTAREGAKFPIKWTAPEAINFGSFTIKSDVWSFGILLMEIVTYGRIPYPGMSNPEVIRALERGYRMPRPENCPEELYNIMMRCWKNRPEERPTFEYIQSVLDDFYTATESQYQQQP

[7] = test system: RBL-2H3; experiment: Antiallergic activity against anti-DNP-IgE sensitized rat RBL-2H3 cells assessed as […] of degranulation by measuring beta-hexosaminidase release using P-nitrophenyl-N-acetyl-D-glucosamide as substrate measured after 1 hr by microplate reader; type: functional, cell-based; settings: RBL-2H3, 1 h
[8] = molecular target: T3, Tyrosine-protein kinase TXK (Homo sapiens) (UniProt P42681); experiment: Inhibition of human recombinant […] (256 to end) at 50 nM by radiometric scintillation counting analysis relative to control
T3 sequence (whole entry): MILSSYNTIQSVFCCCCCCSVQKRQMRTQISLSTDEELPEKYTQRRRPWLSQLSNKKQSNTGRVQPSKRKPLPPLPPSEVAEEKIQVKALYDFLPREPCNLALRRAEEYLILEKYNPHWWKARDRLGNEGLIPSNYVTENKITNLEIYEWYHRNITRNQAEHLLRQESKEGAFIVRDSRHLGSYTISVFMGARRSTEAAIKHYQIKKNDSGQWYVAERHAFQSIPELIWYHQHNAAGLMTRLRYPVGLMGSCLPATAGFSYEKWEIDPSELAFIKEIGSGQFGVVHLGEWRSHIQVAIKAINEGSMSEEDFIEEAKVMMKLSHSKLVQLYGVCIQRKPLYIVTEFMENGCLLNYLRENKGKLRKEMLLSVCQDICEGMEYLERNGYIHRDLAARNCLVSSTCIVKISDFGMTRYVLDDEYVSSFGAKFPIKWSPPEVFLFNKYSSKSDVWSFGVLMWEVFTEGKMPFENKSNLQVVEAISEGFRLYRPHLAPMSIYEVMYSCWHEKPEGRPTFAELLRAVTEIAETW

[9] = molecular target: T2, Tyrosine-protein kinase CSK; experiment: Inhibition of human full length recombinant CSK at 5 nM by radiometric scintillation counting analysis relative to control
[10] = molecular target: T4, Inhibitor of nuclear factor kappa-B kinase subunit alpha (Homo sapiens) (UniProt O15111); experiment: Inhibition of human full length recombinant IKKalpha at 500 nM by radiometric scintillation counting analysis relative to control
T4 sequence (whole entry): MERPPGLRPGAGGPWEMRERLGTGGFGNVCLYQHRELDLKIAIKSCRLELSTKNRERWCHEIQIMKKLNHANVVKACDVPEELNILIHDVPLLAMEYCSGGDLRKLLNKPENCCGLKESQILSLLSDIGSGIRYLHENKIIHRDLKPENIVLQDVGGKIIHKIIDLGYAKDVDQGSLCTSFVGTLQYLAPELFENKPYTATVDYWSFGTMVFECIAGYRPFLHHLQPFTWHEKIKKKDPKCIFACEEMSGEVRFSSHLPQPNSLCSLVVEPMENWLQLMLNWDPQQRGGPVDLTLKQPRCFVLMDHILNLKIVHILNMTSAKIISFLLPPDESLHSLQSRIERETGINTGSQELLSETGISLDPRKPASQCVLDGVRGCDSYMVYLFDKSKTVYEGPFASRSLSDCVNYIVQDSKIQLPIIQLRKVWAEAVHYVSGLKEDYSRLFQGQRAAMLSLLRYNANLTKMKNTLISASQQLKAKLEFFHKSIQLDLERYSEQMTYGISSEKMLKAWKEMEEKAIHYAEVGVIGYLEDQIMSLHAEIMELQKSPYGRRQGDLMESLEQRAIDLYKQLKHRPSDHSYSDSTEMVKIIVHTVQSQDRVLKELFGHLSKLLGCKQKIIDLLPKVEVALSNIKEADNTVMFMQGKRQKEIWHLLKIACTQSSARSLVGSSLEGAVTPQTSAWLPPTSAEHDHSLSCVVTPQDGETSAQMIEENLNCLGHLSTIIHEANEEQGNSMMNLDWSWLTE

[11] = molecular target: Tyrosine-protein kinase JAK1 (Homo sapiens) (UniProt P23458); experiment: Inhibition of human recombinant JAK1 at 500 nM radiometric scintillation counting analysis relative to control
Tyrosine-protein kinase JAK1 (Homo sapiens), sequence (P23458 whole entry): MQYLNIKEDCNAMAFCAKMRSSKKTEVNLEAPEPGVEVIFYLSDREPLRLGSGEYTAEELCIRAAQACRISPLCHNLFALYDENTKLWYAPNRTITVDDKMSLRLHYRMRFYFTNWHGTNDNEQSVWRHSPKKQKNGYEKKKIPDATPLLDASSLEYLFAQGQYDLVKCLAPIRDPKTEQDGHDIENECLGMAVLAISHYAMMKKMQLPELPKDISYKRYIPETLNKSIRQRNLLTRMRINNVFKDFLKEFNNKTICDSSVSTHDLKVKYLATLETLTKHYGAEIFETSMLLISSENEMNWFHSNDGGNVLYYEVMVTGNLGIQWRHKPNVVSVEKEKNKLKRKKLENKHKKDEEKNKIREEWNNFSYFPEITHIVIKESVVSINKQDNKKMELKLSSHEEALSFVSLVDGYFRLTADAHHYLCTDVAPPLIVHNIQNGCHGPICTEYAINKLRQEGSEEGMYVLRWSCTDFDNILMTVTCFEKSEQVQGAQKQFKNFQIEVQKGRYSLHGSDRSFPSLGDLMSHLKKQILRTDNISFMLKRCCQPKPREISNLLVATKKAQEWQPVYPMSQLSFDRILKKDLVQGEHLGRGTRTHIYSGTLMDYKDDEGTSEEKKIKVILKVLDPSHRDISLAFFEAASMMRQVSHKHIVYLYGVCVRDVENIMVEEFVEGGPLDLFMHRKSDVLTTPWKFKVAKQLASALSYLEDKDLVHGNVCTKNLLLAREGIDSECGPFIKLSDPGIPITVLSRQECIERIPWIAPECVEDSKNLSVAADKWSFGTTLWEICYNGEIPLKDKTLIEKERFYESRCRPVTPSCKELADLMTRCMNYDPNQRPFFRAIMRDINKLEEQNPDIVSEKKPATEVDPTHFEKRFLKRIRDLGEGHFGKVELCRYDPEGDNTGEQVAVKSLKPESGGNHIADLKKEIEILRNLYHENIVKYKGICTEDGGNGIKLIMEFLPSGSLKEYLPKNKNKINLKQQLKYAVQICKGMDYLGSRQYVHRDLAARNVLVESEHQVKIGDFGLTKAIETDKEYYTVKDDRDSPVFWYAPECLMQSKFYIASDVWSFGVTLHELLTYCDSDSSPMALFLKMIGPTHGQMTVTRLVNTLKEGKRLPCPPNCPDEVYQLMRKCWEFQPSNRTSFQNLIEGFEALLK

[12] = molecular target: Tyrosine-protein kinase Yes (Homo sapiens, UniProt P07947); experiment: Inhibition of human full length recombinant Yes at 50 nM by radiometric scintillation counting analysis relative to control
Tyrosine-protein kinase Yes, sequence (P07947 2-543 limits assumed): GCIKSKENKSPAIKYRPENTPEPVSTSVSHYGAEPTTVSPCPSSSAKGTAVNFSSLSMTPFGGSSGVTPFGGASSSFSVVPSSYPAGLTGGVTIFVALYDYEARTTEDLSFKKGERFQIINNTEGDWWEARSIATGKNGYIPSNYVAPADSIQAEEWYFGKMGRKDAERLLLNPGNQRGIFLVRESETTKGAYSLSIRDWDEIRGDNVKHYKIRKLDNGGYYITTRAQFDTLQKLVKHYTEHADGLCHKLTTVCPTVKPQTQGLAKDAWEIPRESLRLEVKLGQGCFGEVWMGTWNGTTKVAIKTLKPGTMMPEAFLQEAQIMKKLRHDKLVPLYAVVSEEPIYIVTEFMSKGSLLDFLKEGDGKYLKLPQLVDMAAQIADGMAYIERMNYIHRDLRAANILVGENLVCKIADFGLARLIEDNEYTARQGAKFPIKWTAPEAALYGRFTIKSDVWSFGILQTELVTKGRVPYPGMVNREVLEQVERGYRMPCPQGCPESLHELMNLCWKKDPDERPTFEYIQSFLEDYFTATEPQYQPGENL

[13] = molecular target: T1, Tyrosine-protein kinase Lck; experiment: Inhibition of human full length recombinant LCK at 500 nM by radiometric scintillation counting analysis relative to control
[14] = molecular target: Macrophage colony-stimulating factor 1 receptor (Homo sapiens, UniProt P07333); experiment: Inhibition of human recombinant CSF1R using ATP/Ulight-TK peptide at 50 nM incubated for 15 mins relative to control
Macrophage colony-stimulating factor 1 receptor, sequence (P07333 whole entry): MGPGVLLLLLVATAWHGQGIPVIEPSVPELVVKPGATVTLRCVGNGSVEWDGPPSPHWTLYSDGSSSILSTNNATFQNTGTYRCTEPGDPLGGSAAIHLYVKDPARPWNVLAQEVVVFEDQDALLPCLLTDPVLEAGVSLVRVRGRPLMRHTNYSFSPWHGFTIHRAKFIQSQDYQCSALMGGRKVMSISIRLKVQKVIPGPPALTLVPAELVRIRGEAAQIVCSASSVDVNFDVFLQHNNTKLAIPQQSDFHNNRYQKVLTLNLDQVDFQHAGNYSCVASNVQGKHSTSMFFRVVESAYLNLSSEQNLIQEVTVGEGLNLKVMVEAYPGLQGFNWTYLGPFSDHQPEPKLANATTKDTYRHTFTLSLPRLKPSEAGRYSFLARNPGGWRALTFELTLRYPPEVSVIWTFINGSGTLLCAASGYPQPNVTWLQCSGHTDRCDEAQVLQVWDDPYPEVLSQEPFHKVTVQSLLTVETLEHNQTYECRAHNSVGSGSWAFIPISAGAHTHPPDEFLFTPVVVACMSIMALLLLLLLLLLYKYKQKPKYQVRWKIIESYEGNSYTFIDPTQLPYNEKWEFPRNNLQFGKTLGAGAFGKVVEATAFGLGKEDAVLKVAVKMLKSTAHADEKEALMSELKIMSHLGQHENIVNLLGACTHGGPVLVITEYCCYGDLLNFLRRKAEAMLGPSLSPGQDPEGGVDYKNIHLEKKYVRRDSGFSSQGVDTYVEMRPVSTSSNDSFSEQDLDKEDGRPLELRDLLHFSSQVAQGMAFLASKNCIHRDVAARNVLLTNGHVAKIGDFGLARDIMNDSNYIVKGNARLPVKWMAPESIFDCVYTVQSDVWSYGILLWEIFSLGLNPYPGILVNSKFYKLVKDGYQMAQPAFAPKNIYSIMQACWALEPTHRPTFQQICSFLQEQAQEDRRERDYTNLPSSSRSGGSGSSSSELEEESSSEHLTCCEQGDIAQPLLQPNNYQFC

[15] = molecular target: Mast/stem cell growth factor receptor Kit (Homo sapiens) (UniProt P10721); experiment: Inhibition of human recombinant c-Kit at 500 nM by radiometric scintillation counting analysis relative to control

Cc1ccc(C(=O)Nc2cc(C(F)(F)F)cc(C(F)(F)F)c2)cc1C#Cc1cc(-c2cnn(C)c2)cnc1N
inhibition [1]: 2% | inhibition [2]: 86% | inhibition [3]: 71% | inhibition [4]: 26% | inhibition [5]: 34% | inhibition [6]: 92% | IC50 [7]: 9.32 nM | inhibition [8]: 60% | inhibition [9]: 22% | inhibition [10]: 12% | inhibition [11]: 0% | inhibition [12]: 14% | inhibition [13]: 77% | inhibition [14]: 83% | inhibition [15]: 17%

Cc1ccc(C(=O)Nc2ccc(OC(F)(F)F)cc2)cc1C#Cc1cc(-c2cnn(C)c2)cnc1N
inhibition [1]: 9% | inhibition [2]: 54% | inhibition [3]: 34% | inhibition [4]: 42% | inhibition [5]: 4% | inhibition [6]: 92% | IC50 [7]: 3.71 nM | inhibition [8]: 18% | inhibition [9]: 2% | inhibition [10]: 0% | inhibition [11]: -2% | inhibition [12]: 39% | inhibition [13]: 98% | inhibition [14]: 69% | inhibition [15]: 65%

Cc1ccc(C(=O)Nc2ccc(Cl)cc2Cl)cc1C#Cc1cc(-c2cnn(C)c2)cnc1N
inhibition [1]: 8% | inhibition [2]: 13% | inhibition [3]: 20% | inhibition [4]: 27% | inhibition [5]: 28% | inhibition [6]: 64% | IC50 [7]: > 1000 nM | inhibition [8]: 5% | inhibition [9]: 22% | inhibition [10]: 2% | inhibition [11]: -8% | inhibition [12]: 18% | inhibition [13]: 92% | inhibition [14]: 94% | inhibition [15]: 56%
